Measurements: ChEMBL document CHEMBL3885881, “DrugMatrix”

Organism: Rattus norvegicus
Experiment: DrugMatrix - Regimen: Daily Repeat
Type: toxicity, organism-based, Sprague-Dawley
Parameters: regimen Daily Repeat, gender Male, age 6-8 weeks
Conditions: in vivo, po, route oral GAVAGE, vehicle .5 % CMC; for ABSOLUTE BASOPHIL / ABSOLUTE EOSINOPHIL / ABSOLUTE LYMPHOCYTE / ABSOLUTE MONOCYTE / ABSOLUTE SEGMENTED NEUTROPHIL / BASOPHIL / EOSINOPHIL / ERYTHROCYTE COUNT / HEMATOCRIT / HEMOGLOBIN / LEUKOCYTE COUNT / LYMPHOCYTE / MEAN CORPUSCULAR HEMOGLOBIN / MEAN CORPUSCULAR HEMOGLOBIN CONCENTRATION / MEAN CORPUSCULAR VOLUME / MONOCYTE / NEUTROPHIL / NUCLEATED RED BLOOD CELLS / PLATELET COUNT: tissue Blood; for ALANINE AMINOTRANSFERASE / ALBUMIN / ALKALINE PHOSPHATASE / ASPARTATE AMINOTRANSFERASE / BLOOD UREA NITROGEN / CARBON DIOXIDE / CHLORIDE / CHOLESTEROL / CREATINE PHOSPHOKINASE / CREATININE / GLUCOSE / LACTATE DEHYDROGENASE / LIPASE / PHOSPHORUS / POTASSIUM / SODIUM / TOTAL BILIRUBIN / TOTAL PROTEIN / URIC ACID: tissue Plasma
[1] = 0 mg/kg, 72 h, dose level Control, time 3 day
[2] = 0 mg/kg, 120 h, dose level Control, time 5 day
[3] = 30 mg/kg, 72 h, dose level Low, time 3 day

Compound: CCOc1cc(N)c(Cl)cc1C(=O)NCC1CN(Cc2ccc(F)cc2)CCO1 (centres undefined) [MOSAPRIDE]
- ABSOLUTE BASOPHIL [1]: 0 CELLS/uL
- ABSOLUTE EOSINOPHIL [1]: 171.33 CELLS/uL
- ABSOLUTE LYMPHOCYTE [1]: 13776.5 CELLS/uL
- ABSOLUTE MONOCYTE [1]: 180.83 CELLS/uL
- ABSOLUTE SEGMENTED NEUTROPHIL [1]: 1121.33 CELLS/uL
- BASOPHIL [1]: 0%
- EOSINOPHIL [1]: 1%
- ERYTHROCYTE COUNT [1]: 5.56 x10E6/uL
- HEMATOCRIT [1]: 34.75%
- HEMOGLOBIN [1]: 13.68 G/DL
- LEUKOCYTE COUNT [1]: 15.25 x10E3/uL
- LYMPHOCYTE [1]: 90.17%
- MEAN CORPUSCULAR HEMOGLOBIN [1]: 24.6 pg
- MEAN CORPUSCULAR HEMOGLOBIN CONCENTRATION [1]: 39.4 G/DL
- MEAN CORPUSCULAR VOLUME [1]: 62.48 fL
- MONOCYTE [1]: 1.17%
- NEUTROPHIL [1]: 7.67%
- NUCLEATED RED BLOOD CELLS [1]: 0 /100WBC
- PLATELET COUNT [1]: 1342 x10E3/uL
- ALANINE AMINOTRANSFERASE [1]: 49.67 u/L
- ALBUMIN [1]: 4.15 G/DL
- ALKALINE PHOSPHATASE [1]: 346.83 u/L
- ASPARTATE AMINOTRANSFERASE [1]: 108.17 u/L
- BLOOD UREA NITROGEN [1]: 17.33 mg/dL
- CARBON DIOXIDE [1]: 25 mmol/L
- CHLORIDE [1]: 100.83 MEQ/L
- CHOLESTEROL [1]: 66.83 mg/dL
- CREATINE PHOSPHOKINASE [1]: 788 u/L
- CREATININE [1]: 0.18 mg/dL
- GLUCOSE [1]: 151.67 mg/dL
- LACTATE DEHYDROGENASE [1]: 982.5 u/L
- LIPASE [1]: 10.33 u/L
- PHOSPHORUS [1]: 11.23 mg/dL
- POTASSIUM [1]: 6.37 MEQ/L
- SODIUM [1]: 141.02 MEQ/L
- TOTAL BILIRUBIN [1]: 0.18 mg/dL
- TOTAL PROTEIN [1]: 5.9 G/DL
- URIC ACID [1]: 1.8 mg/dL
- ABSOLUTE BASOPHIL [2]: 0 CELLS/uL
- ABSOLUTE EOSINOPHIL [2]: 69 CELLS/uL
- ABSOLUTE LYMPHOCYTE [2]: 13632.83 CELLS/uL
- ABSOLUTE MONOCYTE [2]: 139.83 CELLS/uL
- ABSOLUTE SEGMENTED NEUTROPHIL [2]: 1225 CELLS/uL
- BASOPHIL [2]: 0%
- EOSINOPHIL [2]: 0.33%
- ERYTHROCYTE COUNT [2]: 5.52 x10E6/uL
- HEMATOCRIT [2]: 33.98%
- HEMOGLOBIN [2]: 13.22 G/DL
- LEUKOCYTE COUNT [2]: 15.07 x10E3/uL
- LYMPHOCYTE [2]: 90.83%
- MEAN CORPUSCULAR HEMOGLOBIN [2]: 23.95 pg
- MEAN CORPUSCULAR HEMOGLOBIN CONCENTRATION [2]: 38.9 G/DL
- MEAN CORPUSCULAR VOLUME [2]: 61.53 fL
- MONOCYTE [2]: 0.83%
- NEUTROPHIL [2]: 8%
- NUCLEATED RED BLOOD CELLS [2]: 0 /100WBC
- PLATELET COUNT [2]: 1196 x10E3/uL
- ALANINE AMINOTRANSFERASE [2]: 49.17 u/L
- ALBUMIN [2]: 4.2 G/DL
- ALKALINE PHOSPHATASE [2]: 352.33 u/L
- ASPARTATE AMINOTRANSFERASE [2]: 89.67 u/L
- BLOOD UREA NITROGEN [2]: 18 mg/dL
- CARBON DIOXIDE [2]: 27.67 mmol/L
- CHLORIDE [2]: 101 MEQ/L
- CHOLESTEROL [2]: 72.83 mg/dL
- CREATINE PHOSPHOKINASE [2]: 417.5 u/L
- CREATININE [2]: 0.18 mg/dL
- GLUCOSE [2]: 150.5 mg/dL
- LACTATE DEHYDROGENASE [2]: 517.33 u/L
- LIPASE [2]: 9 u/L
- PHOSPHORUS [2]: 11.87 mg/dL
- POTASSIUM [2]: 6.57 MEQ/L
- SODIUM [2]: 143.62 MEQ/L
- TOTAL BILIRUBIN [2]: 0.2 mg/dL
- TOTAL PROTEIN [2]: 6.08 G/DL
- URIC ACID [2]: 1.45 mg/dL
- ABSOLUTE BASOPHIL [3]: 0 CELLS/uL
- ABSOLUTE EOSINOPHIL [3]: 0 CELLS/uL
- ABSOLUTE LYMPHOCYTE [3]: 13493 CELLS/uL
- ABSOLUTE MONOCYTE [3]: 253.67 CELLS/uL
- ABSOLUTE SEGMENTED NEUTROPHIL [3]: 1253.33 CELLS/uL
- BASOPHIL [3]: 0%
- EOSINOPHIL [3]: 0%
- ERYTHROCYTE COUNT [3]: 5.62 x10E6/uL
- HEMATOCRIT [3]: 34.97%
- HEMOGLOBIN [3]: 13.6 G/DL
- LEUKOCYTE COUNT [3]: 15 x10E3/uL
- LYMPHOCYTE [3]: 90%
- MEAN CORPUSCULAR HEMOGLOBIN [3]: 24.23 pg
- MEAN CORPUSCULAR HEMOGLOBIN CONCENTRATION [3]: 38.9 G/DL
- MEAN CORPUSCULAR VOLUME [3]: 62.3 fL
- MONOCYTE [3]: 1.67%
- NEUTROPHIL [3]: 8.33%
- NUCLEATED RED BLOOD CELLS [3]: 0 /100WBC
- PLATELET COUNT [3]: 1159.67 x10E3/uL
- ALANINE AMINOTRANSFERASE [3]: 57.33 u/L
- ALBUMIN [3]: 4.3 G/DL
- ALKALINE PHOSPHATASE [3]: 338 u/L
- ASPARTATE AMINOTRANSFERASE [3]: 95 u/L
- BLOOD UREA NITROGEN [3]: 14.67 mg/dL
- CARBON DIOXIDE [3]: 26.33 mmol/L
- CHLORIDE [3]: 102 MEQ/L
- CHOLESTEROL [3]: 74 mg/dL
- CREATINE PHOSPHOKINASE [3]: 533.33 u/L
- CREATININE [3]: 0.2 mg/dL
- GLUCOSE [3]: 136.67 mg/dL
- LACTATE DEHYDROGENASE [3]: 408 u/L
- LIPASE [3]: 10.67 u/L
- PHOSPHORUS [3]: 12.77 mg/dL
- POTASSIUM [3]: 6.39 MEQ/L
- SODIUM [3]: 143.7 MEQ/L
- TOTAL BILIRUBIN [3]: 0.2 mg/dL
- TOTAL PROTEIN [3]: 6 G/DL
- URIC ACID [3]: 1.47 mg/dL
